In patent US20250034135A1, “ANTI-APOPTOTIC PROTEIN BCL-2 INHIBITOR, PHARMACEUTICAL COMPOSITION AND USES THEREOF” (HANGZHOU HEALZEN THERAPEUTICS CO., LTD., priority 2021, published 2025):

What follows are compounds tested against BCL2 (Homo sapiens (Human), UniProt P10415) (assay: Molecular level activity test of anti-apoptotic protein BCL2 (HTRF, binding to Bim peptide)). Conditions: HTRF, binding of BCL2 to Bim peptide; read-out: BCL2 nM (inhibitory activity, IC50).
In short: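 HTRF binding of His-tagged recombinant BCL2 to biotin-tagged Bim peptide, compound in 2% DMSO. After 1 h reaction, anti-His and streptavidin-XL665 detection reagents were added and incubated 4 h at room temperature before reading.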

Chain of BCL2 (P10415 whole entry): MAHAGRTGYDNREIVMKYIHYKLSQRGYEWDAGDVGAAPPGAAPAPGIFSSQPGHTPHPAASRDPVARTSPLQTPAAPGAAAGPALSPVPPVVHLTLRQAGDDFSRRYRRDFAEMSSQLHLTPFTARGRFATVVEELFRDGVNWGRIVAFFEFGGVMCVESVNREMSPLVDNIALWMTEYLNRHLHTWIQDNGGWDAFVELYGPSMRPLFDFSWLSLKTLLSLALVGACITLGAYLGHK

SMILES | IC50
CC(=O)Nc1ccc(CN2CCN(C3CC4(CCN(c5cc(Oc6cnc7[nH]ccc7c6)c(C(=O)NS(=O)(=O)c6ccc(NCC7(F)CCOCC7)c([N+](=O)[O-])c6)cc5F)CC4)C3)[C@H](c3ccccc3C(C)C)C2)cc1 [compound 200, (R)-2-((1H-pyrrolo[2,3-b]pyrid-5-yl)oxy)-4-(2-(4-(4-acetylaminobenzyl)-2-(2-isopropylphenyl)piperazin-1-yl)-7-azaspiro[3.5]non-7-yl)-5-fluoro-N-((4-(((4-fluorotetrahydro-2H-pyran-4-yl)methyl)amino)-3-nitrophenyl)sulfonyl)benzamide] | < 10 nM
COc1ccc(CN2CCN(C3CC4(CCN(c5cc(Oc6cnc7[nH]ccc7c6)c(C(=O)NS(=O)(=O)c6cc([N+](=O)[O-])c(NCC7(F)CCOCC7)c7c6OCO7)cn5)CC4)C3)[C@H](c3ccccc3C(C)C)C2)cc1 [compound 132, (R)-4-((1H-pyrrolo[2,3-b]pyrid-5-yl)oxy)-N-((7-(((4-fluorotetrahydro-2H-pyran-4-yl)methyl)amino)-6-nitrobenzo[d][1,3]dioxocyclopent-4-yl)sulfonyl)-6-(2-(2-(2-isopropylphenyl)-4-(4-methoxybenzyl)piperazin-1-yl)-7-azaspiro[3.5]non-7-yl) nicotinamide] | < 10 nM
COc1ccc(CN2CCN(C3CC4(CCN(c5ccc(C(=O)NS(=O)(=O)c6cc([N+](=O)[O-])c(NC[C@H]7CC[C@](C)(O)CC7)c7[nH]cnc67)c(N6CCCOc7nc8[nH]ccc8cc76)c5)CC4)C3)C(c3ccccc3C(C)C)C2)cc1 (stereo partly drawn) [compound 090, 2-(3,4-dihydro-2H-pyrrolo[3′,2′:5,6]pyridino[2,3-b][1,4]oxazacyclohept-1 (7H)-yl)-N-((7-((((1r,4r)-4-hydroxy-4-methylcyclohexyl)methyl)amino)-6-nitro-1H-benzo[d]imidazol-4-yl)sulfonyl)-4-(2-(2-(2-isopropylphenyl)-4-(4-methoxybenzyl)piperazin-1-yl)-7-azaspiro[3.5]non-7-yl)benzamide] | < 10 nM
COc1ccc(CN2CCN(C3CC4(CCN(c5cc(Oc6cnc7[nH]ccc7c6)c(C(=O)NS(=O)(=O)c6ccc(NC[C@H]7CC[C@](C)(O)CC7)c([N+](=O)[O-])c6)cc5F)CC4)C3)[C@H](c3ccccc3C(C)C)C2)c2c1OCCO2 [compound 228, 2-((1H-pyrrolo[2,3-b]pyrid-5-yl)oxy)-5-fluoro-N-((4-((((1r, 4r)-4-hydroxy-4-methylcyclohexyl)methyl)amino)-3-nitrophenyl)sulfonyl)-4-(2-((R)-2-(2-isopropylphenyl)-4-((8-methoxy-2,3-dihydrobenzo[b][1,4]dioxan-5-yl)methyl)piperazin-1-yl)-7-azaspiro[3.5]non-7-yl)benzamide] | < 10 nM
COc1ccc(CN2CCN(C3CC4(CCN(c5ccc(C(=O)NS(=O)(=O)c6cc([N+](=O)[O-])c(NC[C@H]7CC[C@](C)(O)CC7)c7[nH]cnc67)c(Oc6cnc7[nH]ccc7c6)c5)CC4)C3)C(c3ccccc3C(C)C)C2)cn1 (stereo partly drawn) [compound 045, 2-((1H-pyrrolo[2,3-b]pyrid-5-yl)oxy)-N-((7-((((1r,4r)-4-hydroxy-4-methylcyclohexyl)methyl)amino)-6-nitro-1H-benzo[d]imidazol-4-yl)sulfonyl)-4-(2-(2-(2-isopropylphenyl)-4-((6-methoxypyrid-3-yl)methyl)piperazin-1-yl)-7-azaspiro[3.5]non-7-yl)benzamide] | < 10 nM
CC(C)c1ccccc1[C@@H]1CCCN1C1CC2(CCN(c3cc(Oc4cnc5[nH]ccc5c4)c(C(=O)NS(=O)(=O)c4cc([N+](=O)[O-])c(NCC5(F)CCOCC5)c5c4CCO5)cc3F)CC2)C1 [compound 105, (S)-2-((1H-pyrrolo[2,3-b]pyrid-5-yl)oxy)-5-fluoro-N-((7-(((4-fluorotetrahydro-2H-pyran-4-yl)methyl)amino)-6-nitro-2,3-dihydrobenzofuran-4-yl)sulfonyl)-4-(2-(2-(2-isopropylphenyl)pyrrolidin-1-yl)-7-azaspiro[3.5]non-7-yl)benzamide] | < 10 nM
